Measured values from US20070027143A1, “Novel substituted 2,3-benzodiazepine derivatives” (priority 2003, published 2007).
Like-named read-outs stand apart in the source and are kept apart here.

Assays:
CD1 mice [1] = experiment: Anticonvulsant activity, 4-aminopyridine induced seizures; type: in vivo; conditions: Mus musculus, read-out: 4-AP ED50
Protocol: (§1) The anti-seizure activity of some of the compounds of the present invention was measured using the electroshock test (J. Pharmacol. Exp. Ther. 106:319 (1952)) and the results are shown in Table 3. The spasmolytic activity of the compounds of the present invention was investigated by using e.g., pentetrazole (J. Pharmacol. Exp. Ther. 108:168 (1953)), strychnine (J. Pharmacol. Exp. Ther. 129:75 (1960)), bemegrid, nicotine, bicuculline, 4-aminopyridine and mercapto-propionic acid for inducing the clonic-tonic seizures and lethality. The investigated compounds were administered orally in three doses using 10 male CD1 mice/dose, usually 60 min before the induction of seizures.

CD1 mice [2] = experiment: Anticonvulsant activity, bicuculline induced seizures; type: in vivo; conditions: Mus musculus, read-out: Bicuculline ED50
Protocol: as §1

CD1 mice [3] = experiment: Anti-tremor effect, oxotremorine induced tremor; type: in vivo; conditions: Mus musculus; po., Litchfield-Wilcoxon, limits in brackets; read-out: ED50, tremor induced by Oxotremorin 1 mg/kg ip.
CD1 mice [4] = experiment: Anticonvulsant activity, bemegride induced seizures; type: in vivo; conditions: Mus musculus, read-out: Bemegride ED50
Protocol: as §1

AMPA/kainate receptors = experiment: Inhibition of AMPA induced whole-cell current in acutely isolated cerebellar Purkinje cells (patch clamp); type: cell-based; conditions: 5 μM AMPA, read-out: Inhibition of the ion-currents caused by 5 μM AMPA, IC50
Protocol: (§2) In the first model the spreading depression caused by glutamate agonists (i.e., AMPA or kainate) was studied, while in the second one the transmembrane ion-current induced by the activation of the AMPA/kainate receptors was measured directly.
The activity of the compounds of the present invention was studied on acutely isolated cerebellar Purkinje cells by measuring the whole-cell current induced by 5 μM AMPA according for example to the method described by Bleakman et al (Neuropharmacology 12:1689 (1996)).

AMPA receptors = experiment: Inhibition of AMPA induced spreading depression in isolated chicken retina; type: cell-based; conditions: AMPA (5 μM)
Protocol: as §2
Inhibition of AMPA Induced “Spreading Depression” in Isolated Chicken Retina—
The AMPA antagonistic effect of the compounds of formula (I) or (II) was studied in the in vitro “spreading depression” model (Sheardown Brain Res. 607:189 (1993)). The AMPA antagonists prolong the latency of the development of the “spreading depression” caused by AMPA (5 μM).

CD1 mice [5] = experiment: Muscle relaxant activity, rotarod test; type: in vivo; conditions: Mus musculus, ip
CD1 mice [6] = experiment: Anticonvulsant activity, pentetrazole induced seizures; type: in vivo; conditions: Mus musculus, read-out: Pentetrazol ED50
Protocol: as §1

Lewis rats [7] = experiment: Autoimmune encephalomyelitis model, neurological (clinical) symptoms; type: in vivo; conditions: Rattus norvegicus, read-out: Neurological symptoms (change compared to controls, %); for change in vivo at 7.5 mg/kg: po, 7.5 mg/kg p.o.; for change in vivo at 30 mg/kg: ip, 30 mg/kg ip.
Protocol: The compounds were administered intraperitoneally twice a day for 8 days, starting on day 10 after immunization and with an observation period until symptoms were present. 5-15 animals were used in each group. Their weights were 160-180 g (Lewis rats, female) and 180-220 g (Lewis rats, male). The activity of the compounds was determined according to the symptom score values, and compared to those of the control group (see Table 6). Histopathological investigations were carried out on the brain stem, the spinal cord, and the sciatic nerve (Gijbels et al., J. Clin. Invest. 94:2177 (1994)) using 5-10 animal/group.
Compounds of the invention were further investigated in the autoimmune encephalomyelitis model in rats as outlined in this description before, with the variance that 10 animals were used in each group, of weights 140-160 g (Lewis rats, female).

CD1 mice [8] = experiment: Muscle relaxant activity, inclined screen test; type: in vivo; conditions: Mus musculus, ip
CD1 mice [9] = experiment: Anticonvulsant activity, strychnine induced seizures; type: in vivo; conditions: Mus musculus, read-out: Strychnine ED50
Protocol: as §1

Lewis rats [10] = experiment: Autoimmune encephalomyelitis model, neurological (clinical) symptoms; type: in vivo; conditions: Rattus norvegicus, po, 3.75 mg/kg p.o., female rats, read-out: Neurological symptoms (change compared to controls, %)
CD1 mice [11] = experiment: Anti-tremor effect, GYKI 20039 induced tremor; type: in vivo; conditions: Mus musculus; po., Litchfield-Wilcoxon, limits in brackets; read-out: ED50, tremor induced by GYKI 20039 10 mg/kg ip.
CD1 mice [12] = experiment: Anticonvulsant activity, nicotine induced seizures; type: in vivo; conditions: Mus musculus; po.
Protocol: as §1

CD1 mice [13] = experiment: Anticonvulsant activity, maximal electroshock seizure (MES) test; type: in vivo; conditions: Mus musculus
Protocol: as §1

CD1 mice [14] = experiment: Anticonvulsant activity, 3-mercapto-propionic acid induced seizures; type: in vivo; conditions: Mus musculus, read-out: 3-MPA ED50
Protocol: as §1

CD1 mice [15] = experiment: Anti-tremor effect, harmaline induced tremor; type: in vivo; conditions: po., Litchfield-Wilcoxon, limits in brackets
[16] = system: tumor cell types (colon adenocarcinoma, astrocytoma, breast carcinoma, lung carcinoma and neuroblastoma); conditions: Rzeski et al.; cited from earlier work
BN rats [17] = experiment: Bronchial hyperresponsiveness of ovalbumin sensitized, antigen challenged BN rats (tracheal rings, acetylcholine); type: in vivo; conditions: 3.0 mg/kg po, 2 hours pre-challenge, mean ± SE
Source text: (§3) Bronchial hyperresponsiveness (BHR) and airway eosinophilia (AEP) are characteristic features of bronchial asthma. BHR is typified by an exaggerated response to a wide variety of stimuli that can induce an increased resistance to airflow in the airways. AEP is a result of prolonged eosinophil infiltration, mast cell, and T cell activation in the airways. In actively (e.g., ovalbumin) immunized rats (e.g., Brown Norway [BN] strain), repeated sensitization followed by antigenic challenge results in lung eosinophilia and bronchial hyperresponsiveness to different spasmogens (e.g., acetylcholine). This is the most frequently employed model for studying potential anti-asthmatic effects of new chemical entities.
(§4) BN rats were actively immunized with allergen (ovalbumin). On day one, rats were sensitized with the subcutaneous administration of ovalbumin suspended in Al(OH)3 (2.5 μg ovalbumin +20 mg Al(OH)3 in 0.5 ml saline). Booster injections (same dose and same route) were given at day 14 and 21. Simultaneously at each occasion 0.25 ml of Bordatella pentussis vaccine was injected intraperitoneally. On day 28, animals were challenged by inhalation of the antigen (vaporized 1% OVA solution for 1 hour). Test compounds were administered orally 2 hours pre-challenge.
(§5) 48 hours following challenge, they were sacrificed by an overdose of urethane (4-5 ml of 15% urethane given i.p.), bronchoalveolar lavage fluid (BALF) was obtained, and tracheae dissected from the animals. Eosinophil cell count (cells/ml BALF) was determined manually using a selective stain for eosinophils and counting the cells in a Buerker chamber. BHR was determined using tracheal rings suspended in an organ bath. After an equilibration period of 30 minutes, cumulative concentration response curves to acetylcholine were determined. Maximal response of control (unchallenged, non-treated) tracheal rings is obtained at 10^−3 M acetylcholine. The height of this response is defined as 100%. All other contractions are expressed as a percentage and related to the control response.

BN rats [18] = experiment: Airway eosinophilia of ovalbumin sensitized, antigen challenged BN rats (BALF eosinophil count); type: in vivo; conditions: 3.0 mg/kg po, 2 hours pre-challenge, mean ± SE
Source text: as §3, §4, §5

[19] = 0.5 h, po., 30′, read-out: MES 30′ ED50
[20] = 1 h, po., 60 min before induction, read-out: MES (MES 60′) ED50

SMILES: COCc1nnc(N2N=C(c3ccc(N)c(C)c3)c3cc4c(cc3C[C@H]2C)OCO4)s1 [Example 168, (R)-5-(4-Amino-3-methylphenyl)-8-methyl-7-(5-methoxymethyl-1,3,4-thiadiazol-2-yl)-8,9-dihydro-7H-1,3-dioxolo-[4,5-h][2,3]benzodiazepine]
- melting point: 171 to 172 °C
- ED50 (CD1 mice [1]; po.): 4.6 mg/kg
- ED50 (CD1 mice [2]; po.): 10.6 mg/kg
- ED50 (CD1 mice [3]): 3.29 mg/kg
- ED50 (CD1 mice [4]; po.): 6.7 mg/kg
- IC50 (AMPA/kainate receptors): 11 nM
- IC50 (AMPA receptors): 82 nM
- ED50 (CD1 mice [5]): 0.8 mg/kg
- ED50 (CD1 mice [6]; po.): 6.9 mg/kg
- change in vivo at 7.5 mg/kg (Lewis rats [7]; female rats, 0-8 day): -55%
- change in vivo at 7.5 mg/kg (Lewis rats [7]; female rats, 0-14 day): -56%
- ED50 (CD1 mice [8]): 3.58 mg/kg
- ED50 (CD1 mice [9]; po.): 10 mg/kg
- change in vivo at 3.75 mg/kg (Lewis rats [10]; 0-8 day): -16%
- change in vivo at 3.75 mg/kg (Lewis rats [10]; 0-14 day): -23%
- ED50 (CD1 mice [11]): 4.11 mg/kg
- ED50 (CD1 mice [12]): 17.7 mg/kg
- ED50 (CD1 mice [13]; [19]): 2.21 mg/kg
- ED50 (CD1 mice [13]; [20]): 4.49 mg/kg
- ED50 (CD1 mice [14]; po.): 4.62 mg/kg

SMILES: CCCc1nnc(N2N=C(c3ccc(N)c(C)c3)c3cc4c(cc3C[C@H]2C)OCO4)s1 [Example 166, (R)-5-(4-Amino-3-methylphenyl)-8-methyl-7-(5-propyl-1,3,4-thiadiazol-2-yl)-8,9-dihydro-7H-1,3-dioxolo[4,5-h][2,3]benzodiazepine]
- melting point: 150 to 154 °C
- ED50 (CD1 mice [1]; po.): 6.81 mg/kg
- ED50 (CD1 mice [2]; po.): 13.3 mg/kg
- ED50 (CD1 mice [3]): 2.74 mg/kg
- ED50 (CD1 mice [4]; po.): 7.77 mg/kg
- IC50 (AMPA/kainate receptors): 28 nM
- IC50 (AMPA receptors): 201 nM
- ED50 (CD1 mice [5]): 0.86 mg/kg
- ED50 (CD1 mice [6]; po.): 9.18 mg/kg
- change in vivo at 7.5 mg/kg (Lewis rats [7]; female rats, 0-8 day): -51%
- change in vivo at 7.5 mg/kg (Lewis rats [7]; female rats, 0-14 day): -53%
- ED50 (CD1 mice [8]): 3.27 mg/kg
- ED50 (CD1 mice [9]; po.): 7.29 mg/kg
- change in vivo at 3.75 mg/kg (Lewis rats [10]; 0-8 day): -6%
- change in vivo at 3.75 mg/kg (Lewis rats [10]; 0-14 day): -9%
- ED50 (CD1 mice [11]): 4.54 mg/kg
- ED50 (CD1 mice [12]): 21.8 mg/kg
- ED50 (CD1 mice [13]; [19]): 4.54 mg/kg
- ED50 (CD1 mice [13]; [20]): 4.01 mg/kg
- ED50 (CD1 mice [14]; po.): 9.92 mg/kg

SMILES: CC1=NN=C(c2ccc(N)cc2)c2cc3c(cc2C1)OCO3 [GYKI 52466, 5-(4-aminophenyl)-8-methyl-9H-1,3-dioxolo[4,5-h][2,3]benzodiazepine, reference compound]
- ED50 (CD1 mice [1]; po): 43 mg/kg
- ED50 (CD1 mice [2]; po): 35 mg/kg
- ED50, tremor induced by Harmaline 40 mg/kg ip. (CD1 mice [15]): 38.5(25.7-57.9) mg/kg po.
- Growth of selected tumor cell types [16]: inhibit growth
- ED50 (CD1 mice [3]): 20.5 mg/kg
- ED50 (CD1 mice [4]; po): 71.9 mg/kg
- IC50 (AMPA/kainate receptors): 8800 nM
- IC50 (AMPA receptors): 9500 nM
- ED50 (CD1 mice [5]): 25.1 mg/kg
- ED50 (CD1 mice [6]; po): 120 mg/kg
- change in vivo at 30 mg/kg (Lewis rats [7]; female rats, 0-8 day): -45%
- change in vivo at 30 mg/kg (Lewis rats [7]; female rats, 0-14 day): -4%
- change in vivo at 30 mg/kg (Lewis rats [7]; male rats, 0-8 day): -1%
- change in vivo at 30 mg/kg (Lewis rats [7]; male rats, 0-14 day): -1%
- MAX: relative contraction compared to the control at a maximal Ach concentration (BN rats [17]): 135 ± 105%
- ED50 (CD1 mice [8]): 47.1 mg/kg
- BALF eosinophil number (BN rats [18]): 0.91 ± 0.13 ×10^6/ml
- ED50 (CD1 mice [9]; po): 86.7 mg/kg
- ED50 (CD1 mice [11]): 37.1 mg/kg
- ED50 (CD1 mice [12]): 71.8 mg/kg
- ED50 (CD1 mice [13]; po, 0.5 h, read-out: MES 30′ ED50): 21.9 mg/kg
- ED50 (CD1 mice [13]; po, 1 h, read-out: MES (MES 60′) ED50): 37.4 mg/kg
- ED50 (CD1 mice [14]; po): 47 mg/kg
